Measured values reported in US20180037605A1, “SYNTHETIC PEPTIDES AND ENZYMATIC FORMATION OF INTRACELLULAR HYDROGELS” (BRANDEIS UNIVERSITY, priority 2015, published 2018).
≈ marks a conversion by molar mass, not a printed value. Where two headings read alike, the source gives them in different places.

Columns and labels:
[1] = 1.0 wt %, pH 7.4
Procedure: Peptides 1-t/1 were dissolved into distilled water, and the pH of the solution was adjusted carefully by adding 1M NaOH, and this was monitored with pH paper. After the pH of the solution reached 7.4, extra distilled water was added to make the final concentration, followed by the addition of esterase to induce enzymatic gelation.
To elucidate the enzyme-catalyzed self-assembly to form supramolecular nanofibrils inside cells after cellular uptake illustrated in FIG. 2A, the enzymatic transformation of 1-t (or 1) to 3 and the subsequent self-assembly of 3 at the concentration of 1.0 wt % was first examined. To study the enzymatic hydrogelation process of 1-t, analytical HPLC was used to evaluate the rate of enzymatic transformation and transmission electron microscopy (TEM) to examine the self-assembly.

esterase = assay: Esterase-catalysed conversion of 1-t to 3 (analytical HPLC); assay type: biochemical, porcine
HeLa cells [2] = tested on: HeLa cells
Procedure: The HeLa cell line CCL-2™ was purchased from the American Type Culture Collection (ATCC, Manassas, Va., USA).
The following formula was used to calculate the intracellular concentration of the peptides.
Intracellular concentration=(c*300 uL)/(cell number*4*10^−9 cm^3)
where c=(fluorescence−15406.76945)/74174.36908. An average size for the common cells used in cell culture (HeLa) is 15-20 microns in diameter for a suspended cell (volume 4/3πr^3=4000 μm^3 or 4×10^−9 cm^3) (Moran et al., Cell 141:1262 (2010), which is hereby incorporated by reference in its entirety). Methanol was used to break the cell membrane and fully dissolve compounds 1-t, 2-t, and 3.
To quantify the intracellular concentration of the D-peptide derivatives, the procedure illustrated in FIG. 9A was used to determine the cellular uptake of 1-t, 1, and 2-t after treating HeLa cells with these molecules, respectively. […] The “uptake concentration (Cu)” of 1-t or 1 is the sum of 3 and 1-t (or 1) inside the cells.

HeLa cells [3] = details: 200 μM, 24 hours
HeLa cells [4] = assay: MTT cell viability, HeLa; assay type: cell-based; details: third day (72 h)
Procedure: D-7 and D-10 (FIG. 12A), the enantiomers of L-7 and L-10, were prepared as described in Example 3. HeLa and SKOV3 cells were used in an MTT assay for assessing cytotoxicity of the peptides against these cancer cell lines.

HepG2 cells = assay: MTT cell viability, HepG2; assay type: cell-based; details: third day (72 h)
Procedure: (§1) The cells were seeded in exponential growth phase in a 96 well plate at a concentration of 1×10^4 cell/well with 100 μL of culture medium. Cells were allowed to attach for 24 hours at 37° C., 5% CO2 and then the culture medium was removed with the help of vacuum pump. Culture medium containing the precursors in gradient concentrations was added to each well (0 μM as control). 10 μL of 5 mg/mL MTT ((3-(4,5-Dimethylthiazol-2-yl)-2,5-diphenyltetrazolium bromide) was added to each well after 24 hours, 48 hours, and 72 hours incubation. After 4 hours incubation of the plated cells in dark place, 100 μL 10% SDS with 0.01 M HCl was added to each well to dissolve the purple formazan and to stop the reduction reaction. 24 hours later, the absorbance of the solution at 595 nm was finally measured with a DTX 880 Multimode Detector.

A375 cells = assay: MTT cell viability, A375; assay type: cell-based; details: third day (72 h)
Procedure: as §1

in vitro = details: human
Procedure: as §1

HS-5 cells [5] = details: 72 h
Procedure: as §1

HS-5 cells [6] = assay: MTT cell viability, HS-5 stromal cells
Procedure: as §1

A2780 cells = assay: MTT cell viability, A2780; assay type: cell-based; details: third day (72 h)
SKOV3 cells [7] = assay: LC-MS of cell lysates and culture medium, SKOV3; assay type: cell-based
Procedure: After confirming that CES converts the precursor L-10 or D-10 into the hydrogelator L-12 or D-12, the stability of the precursors (L-10 or D-10) when incubated with the ovarian cancer cells was determined. After culturing the precursors with SKOV3 or A2780cis cells at 37° C. for 4 hours, the cell lysates and culture medium were collected for liquid chromatography-mass spectrometry (LC-MS) analysis and the intracellular concentrations of the precursors, the hydrogelators, and the relevant proteolyzed products were determined. After incubation with SKOV3 or A2780cis cells for 4 hours, more than 85% of the precursors (L-10 or D-10) turned into the corresponding hydrogelators (L-12 or D-12; see Table 1 below).

Saos-2 cells = assay: MTT cell viability, Saos-2; assay type: cell-based; details: third day (72 h)
Procedure: as §1

[8] = Systemic toxicity after intravenous injection in mice; details: 5 to 20 mg/kg, after 7 days
T98G cells = assay: MTT cell viability, T98G; assay type: cell-based
Procedure: as §1

[9] = tested on: co-cultured HS-5 and A2780cis cells; assay: Cell viability of co-cultured HS-5 and A2780cis cells; assay type: cell-based; details: L-10 73 μg/mL, third day
Procedure: 5×10^3 of SKOV3 cells (or A2780cis) and 5×10^3 HS-5 cells per well were seeded together and co-cultured in DMEM medium. Based on the results in FIG. 22, the concentrations of L-10 and D-10 at 73 and 37 μg/mL, respectively, were chosen. […] The inhibitory activities of L-10 and D-10 towards the co-culture agree well with their cytotoxicity against A2780cis, SKOV3, and H-5 cells. […] For example, on the first day, the cell viabilities of co-cultured HS-5 and SKOV3 cells and co-cultured HS-5 and A2780cis cells treated by D-10 (37 μg/mL) were 79% and 80%, respectively. While on the third day, the cell viabilities dropped to 44% and 57%, respectively. […] Contrary to the case of D-10, the efficacies of L-10 were almost the same between day two and day three (FIG. 25A), which agreed with the lower in vivo stability of L-10 than that of D-10.

MCF-7 cells = assay: MTT cell viability, MCF-7; assay type: cell-based; details: third day (72 h)
Procedure: as §1

MES-SA/D×5 cells = assay: MTT cell viability, MES-SA/D×5; assay type: cell-based; details: third day (72 h)
Procedure: as §1

PC-12 cells [10] = assay: MTT cell viability, PC-12 neuronal cells; assay type: cell-based, rat
Procedure: as §1

SKOV3 cells [11] = tested on: SKOV3 cells
Procedure: SKOV3 cells were seeded in exponential growth phase in a 96 well plate at a concentration of 1×10^4 cell/well with 100 μL of McCoy's 5A medium modified supplemented with 10% fetal bovine serum (FBS), 100 U/mL penicillin and 100 μg/ml streptomycin. The cells were allowed to attach to the wells for 24 hours at 37° C., 5% CO2. The culture medium was removed and 100 μL culture medium containing compounds (immediately diluted from fresh prepared stock solution of 10 mM) at gradient concentrations (0 μM as the control) was placed into each well. McCoy's 5A medium modified was regarded as blank. After culturing at 37° C., 5% CO2 for 24 hours, 48 hours, and 72 hours, 10 μL of 5 mg/mL MTT (3-(4,5-Dimethylthiazol-2-yl)-2,5-diphenyltetrazolium bromide) was added to each well, and the plated cells were incubated in dark place for 4 hours. 100 μL 10% SDS with 0.01 M HCl was added to each well to stop the reduction reaction and to dissolve the purple formazan. After incubation of the cells at 37° C. for overnight, the OD at 595 nm of the solution was measured in a microplate reader.
as §1

HCC1937 cells = assay: MTT cell viability, HCC1937; assay type: cell-based; details: third day (72 h)
MES-SA cells = assay: MTT cell viability, MES-SA; assay type: cell-based; details: third day (72 h)
Procedure: as §1

U87MG cells = assay: MTT cell viability, U87MG; assay type: cell-based
Procedure: as §1

SKOV3 cells [12] = details: read-out: IC50 of cisplatin; literature value (Oumzil et al.) used as comparison for SKOV3 inhibition; cited from earlier work
PC-12 cells [13] = details: literature (Mendonca et al.); cited from earlier work
HS-5 cells [14] = details: literature (Mendonca et al.); cited from earlier work
[15] = 200 μM in culture medium, 24 hours
[16] = SKOV3 cell lysates, 4 hours, 37° C., 20 μm D-10 or 50 μm L-10

Question: For O=C(CCC(=O)OCCNC(=O)[C@@H](Cc1ccccc1)NC(=O)[C@@H](Cc1ccccc1)NC(=O)CCNc1ccc([N+](=O)[O-])c2nonc12)NCCS(=O)(=O)O [1-t], which solubility [1] is on record?
Answer: significantly enhanced the solubility

Question: What about the “1-t converted to 3 (HPLC)” value (esterase; 1-t 100 μM, esterase 1 U/mL, 24 hours) of the same molecule?
Answer: more than 50%

Question: What about the metabolised at 24 h, 1 wt % (esterase; pig, esterase from porcine liver, pH 7.4, 1-t 1.0 wt %, esterase 1 U/ml, 24 hours, read-out: 1-t converted to 3 (HPLC)) of the same molecule?
Answer: ~11%

Question: And the metabolised at 1 min, 1 wt % (esterase; pig, esterase from porcine liver, 1-t 1.0 wt %, pH 7.4, esterase 1 U/ml, 1 min, read-out: 1-t converted to 3 (analytical HPLC))?
Answer: 2.5%

Question: And the “enhancement of cellular uptake compared with incubation concentration” value (HeLa cells [2]; 50 μM, 24 hours)?
Answer: about 3 fold

Question: What about the “uptake concentration (Cu) / intracellular concentration” value (HeLa cells [2]; [15]) of the same molecule?
Answer: 1.6 mM

Question: What about the “intracellular concentration after washing five times with PBS buffer” value (HeLa cells [2]; 200 μM, 24 hour incubation) of the same molecule?
Answer: 1.4 mM

Question: And the “uptake concentration relative to incubation (extracellular) concentration” value (HeLa cells [2]; 200 μM, 24 hours)?
Answer: 8 fold

Question: What about the Cu (HeLa cells [2]; 200 μM, 48 hours) of the same molecule?
Answer: 2.4 mM

Question: What about the “enhancement of cellular uptake compared with incubation concentration” value (HeLa cells [2]; 200 μM, 48 hours) of the same molecule?
Answer: 12 fold

Question: What about the “enhancement of cellular uptake compared with incubation concentration” value (HeLa cells [2]; 500 μM, 24 hours) of the same molecule?
Answer: ~4.5 fold

Question: What about the intracellular concentration (HeLa cells [2]; incubation medium 25 μM, 24 hours) of the same molecule?
Answer: 28 µM

Question: Which stability inside cells (HeLa cells [3]) does the source give for O=C(CCC(=O)NCCS(=O)(=O)O)NCCNC(=O)[C@@H](Cc1ccccc1)NC(=O)[C@@H](Cc1ccccc1)NC(=O)CCNc1ccc([N+](=O)[O-])c2nonc12 [2-t] here?
Answer: remained intact inside cells

Question: What about the Cu (HeLa cells [2]; [15]) of the same molecule?
Answer: 0.8 mM

Question: And the “uptake concentration (Cu) / intracellular concentration” value (HeLa cells [2]; [15])?
Answer: 0.8 mM

Question: And the “intracellular concentration after first wash” value (HeLa cells [2]; 200 μM, 24 hour incubation)?
Answer: 0.6 mM

Question: What about the “intracellular concentration after washing five times with PBS buffer” value (HeLa cells [2]; 200 μM, 24 hour incubation) of the same molecule?
Answer: 0.08 mM

Question: And the “decrease of intracellular concentration by each wash” value (HeLa cells [2]; 200 μM, 24 hour incubation, PBS wash)?
Answer: about 25%

Question: What about the “uptake concentration relative to incubation (extracellular) concentration” value (HeLa cells [2]; 200 μM, 24 hours) of the same molecule?
Answer: 4 fold

Question: Which results are given for O=C(CCC(=O)OCCNC(=O)[C@H](Cc1ccccc1)NC(=O)[C@H](Cc1ccccc1)NC(=O)Cc1ccc2ccccc2c1)NCCS(=O)(=O)O [L-10]?
Answer: IC50, HeLa (HeLa cells [4]): 53 µg/mL (≈ 72.5 µM); IC50, HepG2 (HepG2 cells): 97 µg/mL (≈ 133 µM); IC50, A375 (A375 cells): 94 µg/mL (≈ 129 µM); viability at 3 day, 73 μg/mL (in vitro): ~80%; IC50, HS-5 (HS-5 cells [5]): above 73 μg/mL; inhibition of HS-5 cells (HS-5 cells [6]; 20 μM (D-10) and 50 μM (L-10)): hardly inhibited; IC50, A2780 (A2780 cells): 49 µg/mL (≈ 67 µM); cumulative intracellular concentration of precursor and hydrogelator relative to incubation concentration (SKOV3 cells [7]; 4 hours incubation): about 10 fold; Ratio of hydrogelator to precursor after 4 hours (SKOV3 cells [7]; SKOV3 cell lysates, 20 μm D-10 or 50 μm L-10): 6.95; Hydrogelator (12) intracellular concentration (SKOV3 cells [7]; [16]): 431 μm; Precursor (10) intracellular concentration (SKOV3 cells [7]; [16]): 62 μm; IC50, Saos-2 (Saos-2 cells): 80 µg/mL (≈ 109 µM); effect on weight and organ index of mice [8]: hardly affected; cell viability of T98G (T98G cells; 365 μg/mL of L-10): ~60%; cytotoxicity toward T98G (T98G cells; at or below 146 μg/mL, 72 h): little cytotoxicity; inhibition of co-cultured HS-5 and A2780cis cells [9]: about 57%; IC50, MCF-7 (MCF-7 cells): 28 µg/mL (≈ 38.3 µM); IC50, A2780cis (A2780cis cells; third day (72 h)): 39 µg/mL (≈ 53.4 µM); IC50, MES-SA/D×5 (MES-SA/D×5 cells): 322 µg/mL (≈ 441 µM); inhibition of PC-12 cells (PC-12 cells [10]; 20 μM (D-10) and 50 μM (L-10)): hardly inhibited; IC50, PC-12 (PC-12 cells [10]; third day (72 h)): above 73 μg/mL; IC50, SKOV3 (SKOV3 cells [11]; 72 h): 46 µg/mL (≈ 62.9 µM); inhibition of SKOV3 cells by mixture with CP (SKOV3 cells [11]; 72 h, 37 μg/mL): ~87%; IC50, HCC1937 (HCC1937 cells): 29 µg/mL (≈ 39.7 µM); IC50, MES-SA (MES-SA cells): 40 µg/mL (≈ 54.7 µM); cell viability of U87MG (U87MG cells; 365 μg/mL of L-10): about 70%; cytotoxicity toward U87MG (U87MG cells; at or below 146 μg/mL, 72 h): little cytotoxicity

Question: Which IC50 (SKOV3 cells [12]) does the source give for N.N.[Cl][Pt][Cl] [cisplatin, reference compound] here?
Answer: 35 µM

Question: And the “inhibition of PC-12 cells” value (PC-12 cells [13])?
Answer: significantly inhibiting

Question: What about the “HS-5 cells killed / inhibited” value (HS-5 cells [6]; 37 μg/mL, third day) of the same molecule?
Answer: ~100%

Question: And the “inhibition of HS-5 cells” value (HS-5 cells [14])?
Answer: significantly inhibiting

Question: And the “inhibition of A2780cis cells” value (A2780cis cells; 37 μg/mL, third day)?
Answer: about 98%

Question: And the “inhibition of SKOV3 cells” value (SKOV3 cells [11]; 37 μg/mL, third day)?
Answer: 90%

Question: And the “inhibition of SKOV3 cells” value (SKOV3 cells [11]; CP 6 μg/mL alone, 72 hours)?
Answer: 48%

Question: And the “cell death of SKOV3 cells” value (SKOV3 cells [11]; CP 6 μg/mL alone, 72 hours (control compound experiment))?
Answer: about 40%

Question: Which solubility [1] does the source give for O=C(O)CCC(=O)OCCNC(=O)[C@@H](Cc1ccccc1)NC(=O)[C@@H](Cc1ccccc1)NC(=O)CCNc1ccc([N+](=O)[O-])c2nonc12 [compound 1] here?
Answer: less soluble than 1-t

Question: And the “uptake concentration (Cu) / intracellular concentration” value (HeLa cells [2]; [15])?
Answer: hardly detected
